Data: patent US20260256792A1, “TREATMENT OF CHRONIC SPONTANEOUS URTICARIA BY ADMINISTERING (R)-2-[3-[4-AMINO-3-(2-FLUORO-4-PHENOXY-PHENYL)PYRAZOLO[3,4-D]PYRIMIDIN-1-YL]PIPERIDINE-1-CARBONYL]-4-METHYL-4-[4-(OXETAN-3-YL)PIPERAZIN-1-YL]PENT-2-ENENITRILE” (priority 2023, published 2026)

Test system: moderate-to-severe chronic spontaneous urticaria (CSU)
Assay: Phase 2 CSU study: itch severity score over 7 days (ISS7)
Format: in vivo, human
Settings: for ISS7 Post-baseline Mean (SD) / ISS7 % Change difference for rilzabrutinib vs. placebo LS Mean (95% CI) / ISS7 % Change from baseline LS Mean (SE) / ISS7 Change difference for rilzabrutinib vs. placebo LS Mean (95% CI) / ISS7 Change from baseline LS Mean (SE): ITT; for Imputed non-responder n (%) (ISS7 reduction of 5 points or more) / Non-responder n (%) (ISS7 reduction of 5 points or more) / OR for rilzabrutinib vs. placebo (ISS7 reduction of 5 points or more) / RRD (%) for rilzabrutinib vs. placebo (ISS7 reduction of 5 points or more) / Responder n (%) (ISS7 reduction of 5 points or more): Omalizumab-Naïve Population, 400 mg BID
Text: The study comprises a 12 week, randomized, double-blind, placebo-controlled, multi-center, dose-ranging efficacy and safety phase, followed by a 40 week open label extension (OLE) phase (see FIG. 1). The study consists of three phases and an optional OLE phase. […] Clinically, CSU is characterized by the spontaneous and recurrent appearance of pruritic hives. The proposed primary endpoints were the UAS7 at Week 12 in EU and EU reference countries and the ISS7 in the US. Regardless of where a participant was from, all assessments were the same. The UAS7 score is a composite score containing both the HSS7 and the ISS7. This allowed a global assessment of the two key components of urticaria: hives and itch. […] The UAS is a validated PRO measure. […] The daily UAS scores range from 0 to 6 point/day. […] Patients were to complete the UAS using the e-diary. […] The following secondary endpoints were to be analyzed using the same approach as for the primary endpoint: • Change from baseline in UAS7 at Week 4 • Change from baseline in UAS7 at Week 12 (for US and US reference countries) • Change from baseline in ISS7 at Week 12 (except US and US reference countries) • Change from baseline in HSS7 at Week 12

CC(C)(C=C(C#N)C(=O)N1CCC[C@@H](n2nc(-c3ccc(Oc4ccccc4)cc3F)c3c(N)ncnc32)C1)N1CCN(C2COC2)CC1 [rilzabrutinib, (R)-2-[3-[4-amino-3-(2-fluoro-4-phenoxy-phenyl)pyrazolo[3,4-d]pyrimidin-1-yl]piperidine-1-carbonyl]-4-methyl-4-[4-(oxetan-3-yl)piperazin-1-yl]pent-2-enenitrile]
ISS7 Post-baseline Mean (SD) (400 mg QPM, Week 8): 10.61 (5.22) | ISS7 % Change difference for rilzabrutinib vs. placebo LS Mean (95% CI) (400 mg QPM, Week 9): −7.07% | ISS7 % Change from baseline LS Mean (SE) (400 mg QPM, Week 9): −37.93% | ISS7 Change difference for rilzabrutinib vs. placebo LS Mean (95% CI) (400 mg QPM, Week 9): −0.74 | ISS7 Change from baseline LS Mean (SE) (400 mg QPM, Week 9): −6.24 (0.96) | ISS7 Post-baseline Mean (SD) (400 mg QPM, Week 9): 10.45 (5.08) | ISS7 % Change difference for rilzabrutinib vs. placebo LS Mean (95% CI) (400 mg QPM, Week 10): −1.26% | ISS7 % Change from baseline LS Mean (SE) (400 mg QPM, Week 10): −39.07 (6.29) % | ISS7 Change difference for rilzabrutinib vs. placebo LS Mean (95% CI) (400 mg QPM, Week 10): −0.17 | ISS7 Change from baseline LS Mean (SE) (400 mg QPM, Week 10): −6.47 (1.02) | ISS7 Post-baseline Mean (SD) (400 mg QPM, Week 10): 10.36 (5.24) | ISS7 % Change difference for rilzabrutinib vs. placebo LS Mean (95% CI) (400 mg QPM, Week 11): −3.30% | ISS7 % Change from baseline LS Mean (SE) (400 mg QPM, Week 11): −36.92 (6.23) % | ISS7 Change difference for rilzabrutinib vs. placebo LS Mean (95% CI) (400 mg QPM, Week 11): −0.04 | ISS7 Change from baseline LS Mean (SE) (400 mg QPM, Week 11): −5.90 (0.99) | ISS7 Post-baseline Mean (SD) (400 mg QPM, Week 11): 10.97 (5.48) | ISS7 % Change difference for rilzabrutinib vs. placebo LS Mean (95% CI) (400 mg QPM, Week 12): 1.35% | ISS7 % Change from baseline LS Mean (SE) (400 mg QPM, Week 12): −35.23 (6.55) % | ISS7 Change difference for rilzabrutinib vs. placebo LS Mean (95% CI) (400 mg QPM, Week 12): 0.85 | ISS7 Change from baseline LS Mean (SE) (400 mg QPM, Week 12): −5.46 (1.03) | ISS7 Post-baseline Mean (SD) (400 mg QPM, Week 12): 11.37 (5.51) | ISS7 % Change difference for rilzabrutinib vs. placebo LS Mean (95% CI) (400 mg TID, Week 1): −29.95% | ISS7 % Change from baseline LS Mean (SE) (400 mg TID, Week 1): −40.41 (5.24) % | ISS7 Change difference for rilzabrutinib vs. placebo LS Mean (95% CI) (400 mg TID, Week 1): −4.65 | ISS7 Change from baseline LS Mean (SE) (400 mg TID, Week 1): −6.65 (0.76) | ISS7 Post-baseline Mean (SD) (400 mg TID, Week 1): 9.20 (5.60) | ISS7 % Change difference for rilzabrutinib vs. placebo LS Mean (95% CI) (400 mg TID, Week 2): −29.81% | ISS7 % Change from baseline LS Mean (SE) (400 mg TID, Week 2): −49.29 (5.21) % | ISS7 Change difference for rilzabrutinib vs. placebo LS Mean (95% CI) (400 mg TID, Week 2): −4.51 | ISS7 Change from baseline LS Mean (SE) (400 mg TID, Week 2): −7.92 (0.79) | ISS7 Post-baseline Mean (SD) (400 mg TID, Week 2): 7.97 (5.99) | ISS7 % Change difference for rilzabrutinib vs. placebo LS Mean (95% CI) (400 mg TID, Week 3): −27.63% | ISS7 % Change from baseline LS Mean (SE) (400 mg TID, Week 3): −50.07 (5.21) % | ISS7 Change difference for rilzabrutinib vs. placebo LS Mean (95% CI) (400 mg TID, Week 3): −3.76 | ISS7 Change from baseline LS Mean (SE) (400 mg TID, Week 3): −7.84 (0.83) | ISS7 Post-baseline Mean (SD) (400 mg TID, Week 3): 7.93 (5.46) | ISS7 % Change difference for rilzabrutinib vs. placebo LS Mean (95% CI) (400 mg TID, Week 4): −23.20% | ISS7 % Change from baseline LS Mean (SE) (400 mg TID, Week 4): −48.97 (5.57) % | ISS7 Change difference for rilzabrutinib vs. placebo LS Mean (95% CI) (400 mg TID, Week 4): −3.13 | ISS7 Change from baseline LS Mean (SE) (400 mg TID, Week 4): −7.75 (0.88) | ISS7 Post-baseline Mean (SD) (400 mg TID, Week 4): 7.54 (5.21) | ISS7 % Change difference for rilzabrutinib vs. placebo LS Mean (95% CI) (400 mg TID, Week 5): −21.69% | ISS7 % Change from baseline LS Mean (SE) (400 mg TID, Week 5): −54.96 (5.32) % | ISS7 Change difference for rilzabrutinib vs. placebo LS Mean (95% CI) (400 mg TID, Week 5): −3.36 | ISS7 Change from baseline LS Mean (SE) (400 mg TID, Week 5): −8.93 (0.86) | ISS7 Post-baseline Mean (SD) (400 mg TID, Week 5): 6.70 (5.91) | ISS7 % Change difference for rilzabrutinib vs. placebo LS Mean (95% CI) (400 mg TID, Week 6): −26.88% | ISS7 % Change from baseline LS Mean (SE) (400 mg TID, Week 6): −55.31 (5.83) % | ISS7 Change difference for rilzabrutinib vs. placebo LS Mean (95% CI) (400 mg TID, Week 6): −4.09 | ISS7 Change from baseline LS Mean (SE) (400 mg TID, Week 6): −8.97 (0.93) | ISS7 Post-baseline Mean (SD) (400 mg TID, Week 6): 6.81 (6.20) | ISS7 % Change difference for rilzabrutinib vs. placebo LS Mean (95% CI) (400 mg TID, Week 7): −24.96% | ISS7 % Change from baseline LS Mean (SE) (400 mg TID, Week 7): −53.83 (5.69) % | ISS7 Change difference for rilzabrutinib vs. placebo LS Mean (95% CI) (400 mg TID, Week 7): −3.71 | ISS7 Change from baseline LS Mean (SE) (400 mg TID, Week 7): −8.71 (0.91) | ISS7 Post-baseline Mean (SD) (400 mg TID, Week 7): 7.13 (5.42) | ISS7 % Change difference for rilzabrutinib vs. placebo LS Mean (95% CI) (400 mg TID, Week 8): −21.97% | ISS7 % Change from baseline LS Mean (SE) (400 mg TID, Week 8): −54.76 (5.95) % | ISS7 Change difference for rilzabrutinib vs. placebo LS Mean (95% CI) (400 mg TID, Week 8): −3.05 | ISS7 Change from baseline LS Mean (SE) (400 mg TID, Week 8): −8.66 (0.95) | ISS7 Post-baseline Mean (SD) (400 mg TID, Week 8): 6.72 (5.76) | ISS7 % Change difference for rilzabrutinib vs. placebo LS Mean (95% CI) (400 mg TID, Week 9): −24.57% | ISS7 % Change from baseline LS Mean (SE) (400 mg TID, Week 9): −55.43 (6.01) % | ISS7 Change difference for rilzabrutinib vs. placebo LS Mean (95% CI) (400 mg TID, Week 9): −3.35 | ISS7 Change from baseline LS Mean (SE) (400 mg TID, Week 9): −8.85 (0.95) | ISS7 Post-baseline Mean (SD) (400 mg TID, Week 9): 6.33 (5.52) | ISS7 % Change difference for rilzabrutinib vs. placebo LS Mean (95% CI) (400 mg TID, Week 10): −18.42% | ISS7 % Change from baseline LS Mean (SE) (400 mg TID, Week 10): −56.23 (6.14) % | ISS7 Change difference for rilzabrutinib vs. placebo LS Mean (95% CI) (400 mg TID, Week 10): −2.68 | ISS7 Change from baseline LS Mean (SE) (400 mg TID, Week 10): −8.98 (0.99) | ISS7 Post-baseline Mean (SD) (400 mg TID, Week 10): 6.43 (5.48) | ISS7 % Change difference for rilzabrutinib vs. placebo LS Mean (95% CI) (400 mg TID, Week 11): −22.13% | ISS7 % Change from baseline LS Mean (SE) (400 mg TID, Week 11): −55.75 (6.15) % | ISS7 Change difference for rilzabrutinib vs. placebo LS Mean (95% CI) (400 mg TID, Week 11): −3.15 | ISS7 Change from baseline LS Mean (SE) (400 mg TID, Week 11): −9.02 (0.96) | ISS7 Post-baseline Mean (SD) (400 mg TID, Week 11): 6.57 (5.76) | ISS7 % Change difference for rilzabrutinib vs. placebo LS Mean (95% CI) (400 mg TID, Week 12): −23.23% | ISS7 % Change from baseline LS Mean (SE) (400 mg TID, Week 12): −59.81 (6.28) % | ISS7 Change difference for rilzabrutinib vs. placebo LS Mean (95% CI) (400 mg TID, Week 12): −3.26 | ISS7 Change from baseline LS Mean (SE) (400 mg TID, Week 12): −9.58 (1.01) | ISS7 Post-baseline Mean (SD) (400 mg TID, Week 12): 5.59 (5.58) | Imputed non-responder n (%) (ISS7 reduction of 5 points or more) (Week 1): 0 n (%) | Non-responder n (%) (ISS7 reduction of 5 points or more) (Week 1): 18 (51.4) n (%) | OR for rilzabrutinib vs. placebo (ISS7 reduction of 5 points or more) (Week 1): 3.240 | RRD (%) for rilzabrutinib vs. placebo (ISS7 reduction of 5 points or more) (Week 1): 25.3% | Responder n (%) (ISS7 reduction of 5 points or more) (Week 1): 17 (48.6) n (%) | Imputed non-responder n (%) (ISS7 reduction of 5 points or more) (Week 2): 1 (2.9) n (%) | Non-responder n (%) (ISS7 reduction of 5 points or more) (Week 2): 17 (48.6) n (%) | OR for rilzabrutinib vs. placebo (ISS7 reduction of 5 points or more) (Week 2): 2.836 | RRD (%) for rilzabrutinib vs. placebo (ISS7 reduction of 5 points or more) (Week 2): 24.1% | Responder n (%) (ISS7 reduction of 5 points or more) (Week 2): 18 (51.4) n (%)
